Test [1] deals with T1, human MC4R (Homo sapiens, UniProt P32245).
T1 construct: host or cells: HEK-293 cells stably expressing the GScAMP22F split-luciferase cAMP sensor and hMC4R, G418 selection
The test can be described thus: split-luciferase cAMP sensor assay, agonist mode (measurement window 1), hMC4R. The class given is cell-based. The following applies: for Emax / EC50: agonist mode; for Emax: read-out: MC4R cAMP % max activation; for EC50: read-out: MC4R cAMP EC50. The procedure: (§1) The stable cell lines were grown and maintained in selection media consisting of Dulbecco's modified Eagle media (DMEM) with 4.5 g/l D-glucose, and 4 mM L-glutamine (Thermo Fisher Scientific, Waltham, MA), supplemented with 10% fetal bovine serum, 100 units/ml penicillin, 100 μg/ml streptomycin, 2.5 μg/ml amphotericin B, 200 μg/ml hygromycin B (for positive selection of the GScAMP22f luciferase reporter), and Geneticin™ (G418) 700 μg/ml (for MC3R or MC4R selection). Actual serum concentration during the assay is estimated to be about 1%. Cell line identity is routinely verified by qPCR and MC3R-and MC4R-specific oligonucleotides.
(§2) The assay for the determination of the cAMP response in live cells was described previously. […] Cells were seeded at a density of 20,000 cells per well using 384-well poly-D lysine-coated, clear bottom, and black-wall assay plates (Corning Inc. Corning, NJ). Cells were allowed to attach to the plates for 18 to 24 h after which growth media was removed and 20 μl of 4% D-luciferin (Promega) in CO2 independent, serum-free medium (Thermo Fisher Scientific) was added to each well. […] Intracellular cAMP levels were measured using an FDSS 7000EX Functional Drug Screening System (Hamamatsu Photonics, Hamamatsu, Japan) in the Center for Chemical Genomics at the Life Sciences Institute. This instrument allowed the in-line addition of test-peptides and receptor agonists while simultaneously acquiring the luminescence signal from live cells. […] A submaximal forskolin (20 μM) concentration was also included to serve as a normalization reference to account for cell number variations and differences in assay transducer efficiency between cell lines.
(§3) With this set up it was possible to evaluate the direct effect of the test-peptides on the MC3R and MC4R cell lines during measurement window 1, while the antagonist profile in the presence of EC90 α-MSH was determined on measurement window 2. […] EC50 or IC50 potency values were determined by non-linear regression by fitting the data to a sigmoid four-parameter variable slope model using the GraphPad Prism version 8.4 software package (San Diego CA).

The target in test [2] is T2, human MC3R (Homo sapiens, UniProt P41968).
T2 construct: expressed in transfected cells; host or cells: HEK-293 cells stably expressing the GScAMP22F split-luciferase cAMP sensor (parent reporter line from Promega); MC3R clone generated in-house, G418 selection
T2 sequence (P41968 whole entry): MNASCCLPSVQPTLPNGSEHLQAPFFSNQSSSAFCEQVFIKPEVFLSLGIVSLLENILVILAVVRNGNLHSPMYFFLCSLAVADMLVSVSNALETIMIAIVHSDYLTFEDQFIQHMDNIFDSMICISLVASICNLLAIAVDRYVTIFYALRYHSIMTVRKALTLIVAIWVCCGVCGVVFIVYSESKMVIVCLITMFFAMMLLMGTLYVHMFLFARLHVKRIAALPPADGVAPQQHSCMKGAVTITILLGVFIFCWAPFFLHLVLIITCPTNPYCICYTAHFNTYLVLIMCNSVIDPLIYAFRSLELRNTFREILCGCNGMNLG
As to the kind of experiment: split-luciferase cAMP sensor assay, agonist mode (measurement window 1), hMC3R. The note with it: agonist mode; for Emax: read-out: MC3R cAMP % max activation; for EC50: read-out: MC3R cAMP EC50. It counts as cell-based. The method, then:
as §1, §2, §3

Setting [3] is: HEK-293 cells stably expressing hMC4R.

Like-named read-outs stand apart in the source and are kept apart here. Positions of bridges follow the written chain, without caps; N, C: chain ends. Non-standard residues stand in square brackets, D forms with d. Residues, ends and D or L forms follow the SMILES beside them. dPhe(4-tBu) = CC(C)(C)c1ccc(C[C@@H](N)C(=O)O)cc1; Phe(4-Br) = N[C@@H](Cc1ccc(Br)cc1)C(=O)O; dPhe(4-Br) = N[C@H](Cc1ccc(Br)cc1)C(=O)O; d(αMeF) = C[C@@](N)(Cc1ccccc1)C(=O)O; d(hPhe) = N[C@H](CCc1ccccc1)C(=O)O; hCit = NC(=O)NCCCC[C@H](N)C(=O)O; dTic = O=C(O)[C@H]1Cc2ccccc2CN1; Cit = NC(=O)NCCC[C@H](N)C(=O)O; Nle = CCCC[C@H](N)C(=O)O

T1 sequence (P32245 whole entry): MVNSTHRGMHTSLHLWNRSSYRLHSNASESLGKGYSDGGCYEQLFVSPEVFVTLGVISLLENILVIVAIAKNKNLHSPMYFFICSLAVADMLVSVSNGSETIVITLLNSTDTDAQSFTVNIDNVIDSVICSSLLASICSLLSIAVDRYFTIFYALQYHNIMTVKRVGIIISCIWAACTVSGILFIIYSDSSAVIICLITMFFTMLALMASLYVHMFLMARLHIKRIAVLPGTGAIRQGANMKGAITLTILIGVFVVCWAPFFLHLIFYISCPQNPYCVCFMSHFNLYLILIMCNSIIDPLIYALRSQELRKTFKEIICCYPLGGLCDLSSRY

In the case of `CC(=O)N[C@@H](CCCNC(=N)N)C(=O)N[C@H]1CSSC[C@@H](C(N)=O)NC(=O)[C@@H](Cc2c[nH]c3ccccc23)NC(=O)[C@H](CCCNC(=N)N)NC(=O)[C@@H](Cc2ccc(C(C)(C)C)cc2)NC(=O)[C@H](CCCNC(=N)N)NC(=O)[C@@H](C)NC1=O` [CTX-1242, Arg-cyclo(Cys-D-Ala-Arg-D-Phe(4-tBu)-Arg-D-Trp-Cys)] (Ac-RC[dA]R[dPhe(4-tBu)]R[dW]C-NH2; disulfide 2-8 (inferred)), in test [1], the “MC4R selectivity vs MC1R” value worked out at 0.64 and the “MC4R selectivity vs MC3R” value worked out at 0.08. Moreover, the Emax in test [1] (hMC4R stable cell line) stood at 5.8%. For the same compound, the Emax in test [2] (hMC3R stable cell line) was 2.8%.

For `CC(=O)N[C@@H](CCCNC(=N)N)C(=O)N[C@H]1CSSC[C@@H](C(N)=O)NC(=O)[C@H]2Cc3ccccc3CN2C(=O)[C@H](CCCNC(=N)N)NC(=O)[C@@H](Cc2ccc(Br)cc2)NC(=O)[C@H](CCCNC(=N)N)NC(=O)[C@@H](C)NC1=O` [CTX-1256, Arg-cyclo(Cys-D-Ala-Arg-D-Phe(4-Br)-Arg-D-Tic-Cys)] (Ac-RC[dA]R[dPhe(4-Br)]R[dTic]C-NH2; disulfide 2-8 (inferred)), in test [1], the “MC4R selectivity vs MC1R” value was determined as 0.003. Further, the “MC4R selectivity vs MC3R” value in test [1] stood at 0.08. Further, the Emax in test [1] (hMC4R stable cell line) was 29%; in test [2] (hMC3R stable cell line) it was 17%.

`CCCC[C@H](NC(=O)[C@H](CCCNC(=N)N)NC(C)=O)C(=O)N[C@H]1CSSC[C@@H](C(N)=O)NC(=O)[C@H](Cc2c[nH]c3ccccc23)NC(=O)[C@H](CCCNC(=N)N)NC(=O)[C@@H](Cc2ccccc2)NC(=O)[C@H](CCCNC(N)=O)NC1=O` [CTX-1607, Arg-Nle-cyclo(Cys-Cit-D-Phe-Arg-Trp-Cys)] (Ac-R[Nle]C[Cit][dF]RWC-NH2; disulfide 3-8 (inferred)): the Emax in test [2] (% maximal activation) is 47%.

`C[C@H]1NC(=O)[C@@H](NC(=O)[C@H](CCCNC(=N)N)NC(=O)COCCOCCNC(=O)COCCOCCNC(=O)CNC(=O)CCc2ccc(I)cc2)CSSC[C@@H](C(N)=O)NC(=O)[C@@H](Cc2c[nH]c3ccccc23)NC(=O)[C@H](CCCNC(=N)N)NC(=O)[C@@H](Cc2ccc(Br)cc2)NC(=O)[C@H](CCCNC(=N)N)NC1=O` [CTX-1226, Arg-cyclo(Cys-D-Ala-Arg-D-Phe(4-Br)-Arg-D-Trp-Cys)]: the Emax in test [1] (hMC4R stable cell line) was 71%; in test [2] (hMC3R stable cell line), 29%.

As to `CCCC[C@H](NC(=O)[C@H](CCCNC(=N)N)NC(C)=O)C(=O)N[C@H]1CSSC[C@@H](C(N)=O)NC(=O)[C@H](Cc2c[nH]c3ccccc23)NC(=O)[C@H](CCCNC(=N)N)NC(=O)[C@@H](Cc2ccccc2)NC(=O)[C@H](CCCCNC(N)=O)NC1=O` [CTX-1618, Arg-Nle-cyclo(Cys-homo-Cit-D-Phe-Arg-Trp-Cys)] (Ac-R[Nle]C[hCit][dF]RWC-NH2; disulfide 3-8 (inferred)), the Emax in test [1] (% maximal activation) amounted to 94%. Besides, the EC50 in test [1] (setting [3]) was determined as 1.8 nM.

For the compound `CC(=O)N[C@@H](CCCNC(=N)N)C(=O)N[C@H]1CSSC[C@@H](C(N)=O)NC(=O)[C@@H](Cc2c[nH]c3ccccc23)NC(=O)[C@H](CCCNC(=N)N)NC(=O)[C@@](C)(Cc2ccccc2)NC(=O)[C@H](CCCNC(=N)N)NC(=O)[C@@H](C)NC1=O` [CTX-1279, Arg-cyclo(Cys-D-Ala-Arg-a-Me-D-Phe-Arg-D-Trp-Cys)] (Ac-RC[dA]R[d(αMeF)]R[dW]C-NH2; disulfide 2-8), in test [1], the “MC4R selectivity vs MC1R” value is 0.83 and the “MC4R selectivity vs MC3R” value is 0.61. Besides, in test [1] (hMC4R stable cell line), the Emax was 79% and the EC50 was found to be 72 nM. The Emax in test [2] (hMC3R stable cell line) is 20%.

Take `CCCC[C@H](NC(=O)[C@H](CCCNC(=N)N)NC(C)=O)C(=O)N[C@H]1CSSC[C@@H](C(N)=O)NC(=O)[C@H](Cc2ccccc2)NC(=O)[C@H](CCCNC(=N)N)NC(=O)[C@@H](Cc2ccc(Br)cc2)NC(=O)[C@H](CCCNC(=N)N)NC1=O` [CTX-1623, Arg-Nle-cyclo(Cys-Arg-D-Phe(4-Br)-Arg-Phe-Cys)] (Ac-R[Nle]CR[dPhe(4-Br)]RFC-NH2; disulfide 3-8): the Emax in test [1] (% maximal activation) worked out at 73%; in test [2] (% maximal activation), 62%.

Consider `CC(=O)N[C@@H](CCCNC(=N)N)C(=O)N[C@H]1CSSC[C@@H](C(=O)N[C@@H](CCCNC(=N)N)C(=O)N[C@@H](Cc2ccccc2)C(=O)NCC(=O)O)NC(=O)[C@@H](Cc2c[nH]c3ccccc23)NC(=O)[C@H](CCCNC(=N)N)NC(=O)[C@@H](Cc2ccc(Br)cc2)NC(=O)[C@H](CCCNC(=N)N)NC(=O)[C@@H](C)NC1=O` [CTX-1219] (Ac-RC[dA]R[dPhe(4-Br)]R[dW]CRFG-OH; disulfide 2-8 (inferred)), for which, in test [1], the “MC4R selectivity vs MC1R” value came out at 1 and the “MC4R selectivity vs MC3R” value was 1.99. Further, in test [1] (hMC4R stable cell line), the Emax was determined as 76% and the EC50 worked out at 2.3 nM. Further, in test [2] (hMC3R stable cell line), the Emax was determined as 20% and the EC50 came out at 4.5 nM.

`CC(=O)N[C@@H](CCCNC(=N)N)C(=O)N[C@H]1CSSC[C@@H](C(N)=O)NC(=O)[C@H](Cc2c[nH]c3ccccc23)NC(=O)[C@H](CCCNC(=N)N)NC(=O)[C@H](Cc2ccc(Br)cc2)NC(=O)[C@H](CCCNC(=N)N)NC(=O)[C@@H](C)NC1=O` [CTX-1212] (Ac-RC[dA]R[Phe(4-Br)]RWC-NH2; disulfide 2-8): in test [1], the “MC4R selectivity vs MC1R” value is recorded as 0.07 and the “MC4R selectivity vs MC3R” value came out at 0.07. The Emax in test [1] (hMC4R stable cell line) was 55%. Moreover, in test [2] (hMC3R stable cell line), the Emax amounted to 0.1% and the EC50 came to 28 nM.

Take `CC(=O)N[C@@H](CCCNC(=N)N)C(=O)N[C@H]1CSSC[C@@H](C(N)=O)NC(=O)[C@@H](Cc2c[nH]c3ccccc23)NC(=O)[C@H](CCCNC(=N)N)NC(=O)[C@@H](CCc2ccccc2)NC(=O)[C@H](CCCNC(=N)N)NC(=O)[C@@H](C)NC1=O` [CTX-1277, Arg-cyclo(Cys-D-Ala-Arg-D-Hph-Arg-D-Trp-Cys)] (Ac-RC[dA]R[d(hPhe)]R[dW]C-NH2; disulfide 2-8 (inferred)): in test [1], the “MC4R selectivity vs MC1R” value was determined as 0.05. Also, the “MC4R selectivity vs MC3R” value in test [1] worked out at 0.1. In addition, the Emax turned out to be 29% in test [1] (hMC4R stable cell line) and 5.2% in test [2] (hMC3R stable cell line).

As for `CC(=O)N[C@@H](CCCNC(=N)N)C(=O)N[C@H]1CSSC[C@@H](C(=O)N[C@@H](CCCCN)C(N)=O)NC(=O)[C@@H](Cc2c[nH]c3ccccc23)NC(=O)[C@H](CCCNC(=N)N)NC(=O)[C@@H](Cc2ccc(Br)cc2)NC(=O)[C@H](CCCNC(=N)N)NC(=O)[C@@H](C)NC1=O` [CTX-1218, Arg-cyclo(Cys-D-Ala-Arg-D-Phe(4-Br)-Arg-D-Trp-Cys)-Lys] (Ac-RC[dA]R[dPhe(4-Br)]R[dW]CK-NH2; disulfide 2-8), in test [1], the “MC4R selectivity vs MC1R” value was found to be 1. Further, in test [1], the “MC4R selectivity vs MC3R” value turned out to be 1.85. Also, the Emax in test [1] (hMC4R stable cell line) was 77%; in test [2] (hMC3R stable cell line), 16%. The EC50 in test [1] (hMC4R stable cell line, unit inferred) came to 2.2 nM; in test [2] (hMC3R stable cell line, unit inferred), 4 nM.

Consider `CCCC[C@H](NC(=O)[C@H](CCCNC(=N)N)NC(C)=O)C(=O)N[C@H]1CSSC[C@@H](C(N)=O)NC(=O)[C@H](Cc2ccccc2)NC(=O)[C@H](CCCNC(=N)N)NC(=O)[C@@H](Cc2ccccc2)NC(=O)[C@H](Cc2c[nH]cn2)NC1=O` [CTX-1625, Arg-Nle-cyclo(Cys-His-D-Phe-Arg-Phe-Cys)] (Ac-R[Nle]CH[dF]RFC-NH2; disulfide 3-8), for which the Emax in test [1] (% maximal activation) was found to be 101%.

For `CC(=O)N[C@@H](CCCNC(=N)N)C(=O)N[C@H]1CSSC[C@@H](C(N)=O)NC(=O)[C@H](Cc2c[nH]c3ccccc23)NC(=O)[C@H](CCCNC(=N)N)NC(=O)[C@@H](Cc2ccccc2)NC(=O)[C@H](CCCNC(=N)N)NC(=O)CNC1=O` [CTX-1293, Arg-cyclo(Cys-Gly-Arg-D-Phe-Arg-Trp-Cys)] (Ac-RCGR[dF]RWC-NH2; disulfide 2-8), the Emax in test [1] (% maximal activation) was determined as 87%. In test [1] (setting [3]), the EC50 came out at 0.25 nM.

For `CC(=O)N[C@@H](CCCNC(=N)N)C(=O)N[C@H]1CSSC[C@@H](C(N)=O)NC(=O)[C@@H](Cc2c[nH]c3ccccc23)NC(=O)[C@H](CCCNC(=N)N)NC(=O)[C@@H](Cc2ccccc2)NC(=O)[C@H](CCCNC(N)=O)NC(=O)[C@H](C)NC1=O` [CTX-1288, Arg-cyclo(Cys-Ala-Cit-D-Phe-Arg-D-Trp-Cys)] (Ac-RCA[Cit][dF]R[dW]C-NH2; disulfide 2-8), in test [1] (% maximal activation), the Emax is 87%.

The values are drawn from patent US20240391954A1, “MC4R AGONIST PEPTIDES” (The Regents of the University of Michigan, priority 2021, published 2024).
